US20080153795A1, “Medicaments and methods for wound healing” (RENOVO LIMITED, priority 2006, published 2008)

Legend:
[1] = test system: human punch biopsy wounds; test: Human punch biopsy wounds, re-epithelialisation by histology; format: in vivo; conditions: 100 μl intradermal 10 minutes before wounding, 3 mm punch biopsy
From the text: Healthy male and post-menopausal female volunteers were chosen as the subjects of the study. 44 healthy subjects were recruited to the study, of whom, 40 were healthy males (aged 18-75 years) and 4 were post-menopausal females (aged 53-69 years). The average age of subjects recruited to this study was 42 years. The post-menopausal status of female subjects was confirmed by quantification of serum levels of oestradiol and follicle stimulating hormone (FSH). Serum levels of oestradiol were required to be <90 pmol/L, and follicle stimulating hormone levels >31 IU/L.
Each subject had three wounds treated with active drug, one corresponding to each of three concentrations of the medicaments produced; a fourth wound was treated with placebo control. The test medicaments and placebo control were each administered intradermally, as a single dose, at a volume of 100 μl per wound site (the upper, inner aspect of each arm), 10-minutes before wounding.
Subjects received 3 mm punch biopsies at the sites where the medicaments had been administered. After wounding, all sites received moist wound healing dressings (Standard Care).
Biopsy sites were excised, using a 5 mm punch biopsy, three days after wounding. Excised wounds were preserved for histological assessment of re-epithelialisation by image analysis. All histological assessments of early wound healing events were made using preserved 5 micron-thickness wound sections taken from the widest part of each excised biopsy site. Sections were stained with Haematoxylin and Eosin to aid visualisation of structural features, and measurements made using image analysis software. The distance traveled by the epithelium is derived from two histological measurements: the freehand total wound diameter and the freehand non-epithelialised wound diameter. […] Percentage re-epithelialisation for the new epithelium was calculated as a proportion of the total wound diameter. The average percentage re-epithelialisation value was calculated from the 44 wounds of each treatment group.

[2] = application of 100 μg in a gel to an epidermal surface, six hours from application; cited from earlier work

| SMILES | re-epithelialisation three days after wounding ([1]; 0.02 μg/100 μl (0.00002%) medicament) | re-epithelialisation three days after wounding ([1]; 0.1 μg/100 μl (0.0001%) medicament) | re-epithelialisation three days after wounding ([1]; 0.2 μg/100 μl (0.0002%) medicament) | applied oestradiol found in the skin or having passed through the skin [2] |
| --- | --- | --- | --- | --- |
| C[C@]12CC[C@@H]3c4ccc(O)cc4CC[C@H]3[C@@H]1CC[C@@H]2O [17β-oestradiol] | 37.4% | 42.3% | 42.6% |  |
| C[C@]12CC[C@@H]3c4ccc(O)cc4CC[C@H]3[C@@H]1CC[C@@H]2O [oestradiol] |  |  |  | 15.7 µg |
